Format in all cases: cell-based
Test [1] relates to A431 (EGFR-WT). The test can be described thus: Cell proliferation study (CellTiter-Glo, 72 hrs), A431. The note with it: Homo sapiens, A-431, A431 cells, CTG, * = average of multiple measurements. The gist of the method: (§1)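 Cells were seeded overnight, then exposed for 72 hrs at 37 °C, 5% CO2 to 9 concentrations in 3.16-fold steps, 0.1% DMSO final, triplicate wells. Viability was read by CellTiter-Glo luminescence, with a T0 plate read at dosing. IC50 came from nonlinear sigmoidal dose-response fits.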
Background: ATP-based viability assays read luminescence as a measure of living cells.

Test [2] has as its target Ba/F3 EGFR-V769_D770insASV (Homo sapiens, UniProt P00533, DUP767-769, cells depend on it). The test can be described thus: Cell proliferation study (CellTiter-Glo, 72 hrs), Ba/F3 EGFR-V769_D770insASV. The note with it: CTG, * = average of multiple measurements, read-out: Ba/F3 EGFR-V769_D770insASV IC50. The method, then: (I) Reagents and Materials
• Fetal bovine serum FBS (GBICO, Cat #10099-141); • CellTiter-Glo® luminescent cell viability assay kit (Promega, Cat #G7572); • Black transparent flat-bottom 96-well plate (Corning®, Cat #3603). (II) Instruments • SpectraMax multi-label microplate reader MD, 2104-0010A; • Carbon dioxide incubator, Thermo Scientific 3100 series; • Biological safety cabinet, Thermo Scientific, 1300 series model A2; • Inverted microscope, Olympus, CKX41SF; • Siemens refrigerator KK25E76T1. (III) Cell Lines and Culture Conditions
(IV) Experimental Procedures 1. Cell Culture and Inoculation: • (1) Cells in the logarithmic growth phase were harvested and counted using a […]. The cell viability was determined by the trypan blue dye exclusion method to ensure cell viability above 90%. • (2) The cell concentration was adjusted to reach a desired final density; 90 μL of cell suspension was added to a 96-well plate. • (3) The cells were incubated overnight in the 96-well plate at 37° C., 5% CO2 and with 95% humidity. 2. T0 Benchmark Data: • (1) 10 μL of PBS was added to each well of the TO plate containing the cells. • (2) The CTG reagent was thawed and the cell plate was equilibrated to room temperature for 30 min. • (3) An equal volume of CTG solution was added to each well. • (4) The cells were lysed by shaking on an orbital shaker for 5 min. • (5) The cell plate was left to stand at room temperature for 20 min to stabilize the fluorescence signal. • (6) The fluorescence signal values of TO were read. 3. Dilution and Addition of Compounds • (1) According to the compound information table, a corresponding volume of DMSO was added to the corresponding compound powder to prepare a 10 mM stock solution. • (2) A 1000-fold, 3.16-fold-diluted compound solution was prepared. • (3) The 1000× diluted compound solution was diluted 100-fold with PBS to prepare a 10-fold compound solution with a maximum concentration of 10 μM, including 9 concentrations, with 3.16-fold dilution, and 10 μL of the medicament solution was added to each well of the 96-well plate to seed the cells. Triplicate wells were set for each compound concentration, with a final concentration of DMSO being 0.1%. • (4) The cells were placed in the 96-well plate containing the medicament at 37° C., 5% CO2 and with 95% humidity, and cultured for 72 hrs before CTG analysis. 4. Fluorescence Signal Reading • (1) The CTG reagent was thawed and the cell plate was equilibrated to room temperature for 30 min. • (2) An equal volume of CTG solution was added to each well. • (3) The cells were lysed by shaking on an orbital shaker for 5 min. • (4) The cell plate was left to stand at room temperature for 20 min to stabilize the fluorescence signal. • (5) The fluorescence values were read. 5. Data Processing
Data were analyzed using GraphPad Prism 7.0 software and fitted data were regressed using non-linear S-curves to obtain dose-response curves from which IC50 values (in nM) were calculated.

The target of test [3] is Ba/F3 EGFR-D770-N771ins_SVD (Homo sapiens, UniProt P00533, DUP768-770, cells depend on it). Nature of the test: Cell proliferation study (CellTiter-Glo, 72 hrs), Ba/F3 EGFR-D770-N771ins_SVD. The note with it: CTG, * = average of multiple measurements, read-out: Ba/F3 EGFR-D770-N771ins_SVD IC50. The gist of the method:
as §1

Sequence of Ba/F3 EGFR-V769_D770insASV (P00533 with tags, fused parts or gaps DUP767-769): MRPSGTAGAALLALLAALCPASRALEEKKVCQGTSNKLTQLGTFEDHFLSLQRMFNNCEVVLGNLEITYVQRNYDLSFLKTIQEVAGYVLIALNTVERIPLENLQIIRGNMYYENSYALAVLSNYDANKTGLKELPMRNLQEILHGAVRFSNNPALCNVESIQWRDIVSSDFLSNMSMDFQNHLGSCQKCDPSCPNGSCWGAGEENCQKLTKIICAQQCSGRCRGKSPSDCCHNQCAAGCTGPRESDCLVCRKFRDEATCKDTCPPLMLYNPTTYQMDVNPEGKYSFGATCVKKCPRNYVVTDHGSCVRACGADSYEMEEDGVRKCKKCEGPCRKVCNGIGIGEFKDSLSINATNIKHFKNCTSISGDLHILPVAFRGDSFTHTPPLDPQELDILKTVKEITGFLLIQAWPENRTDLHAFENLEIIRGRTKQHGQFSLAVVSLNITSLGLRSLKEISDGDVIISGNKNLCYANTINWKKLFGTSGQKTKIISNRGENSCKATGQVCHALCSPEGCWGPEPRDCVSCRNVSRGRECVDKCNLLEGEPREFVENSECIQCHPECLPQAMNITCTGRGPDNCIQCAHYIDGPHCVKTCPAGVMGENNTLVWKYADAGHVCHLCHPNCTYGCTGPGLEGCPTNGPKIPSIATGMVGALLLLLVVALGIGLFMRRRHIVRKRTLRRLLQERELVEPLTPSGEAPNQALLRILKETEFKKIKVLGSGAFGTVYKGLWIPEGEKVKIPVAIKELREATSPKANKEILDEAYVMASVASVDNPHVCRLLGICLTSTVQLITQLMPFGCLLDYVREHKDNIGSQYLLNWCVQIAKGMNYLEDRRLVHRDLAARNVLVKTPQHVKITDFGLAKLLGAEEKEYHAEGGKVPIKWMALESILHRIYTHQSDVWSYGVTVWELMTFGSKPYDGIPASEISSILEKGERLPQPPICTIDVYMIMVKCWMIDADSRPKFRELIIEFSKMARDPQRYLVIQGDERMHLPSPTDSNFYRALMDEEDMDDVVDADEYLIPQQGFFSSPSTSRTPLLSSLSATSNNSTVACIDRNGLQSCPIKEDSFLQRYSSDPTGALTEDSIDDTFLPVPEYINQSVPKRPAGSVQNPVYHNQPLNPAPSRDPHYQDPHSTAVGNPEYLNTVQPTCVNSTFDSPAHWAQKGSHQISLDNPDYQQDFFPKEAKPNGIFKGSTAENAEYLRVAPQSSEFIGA
Sequence of Ba/F3 EGFR-D770-N771ins_SVD (P00533 with tags, fused parts or gaps DUP768-770): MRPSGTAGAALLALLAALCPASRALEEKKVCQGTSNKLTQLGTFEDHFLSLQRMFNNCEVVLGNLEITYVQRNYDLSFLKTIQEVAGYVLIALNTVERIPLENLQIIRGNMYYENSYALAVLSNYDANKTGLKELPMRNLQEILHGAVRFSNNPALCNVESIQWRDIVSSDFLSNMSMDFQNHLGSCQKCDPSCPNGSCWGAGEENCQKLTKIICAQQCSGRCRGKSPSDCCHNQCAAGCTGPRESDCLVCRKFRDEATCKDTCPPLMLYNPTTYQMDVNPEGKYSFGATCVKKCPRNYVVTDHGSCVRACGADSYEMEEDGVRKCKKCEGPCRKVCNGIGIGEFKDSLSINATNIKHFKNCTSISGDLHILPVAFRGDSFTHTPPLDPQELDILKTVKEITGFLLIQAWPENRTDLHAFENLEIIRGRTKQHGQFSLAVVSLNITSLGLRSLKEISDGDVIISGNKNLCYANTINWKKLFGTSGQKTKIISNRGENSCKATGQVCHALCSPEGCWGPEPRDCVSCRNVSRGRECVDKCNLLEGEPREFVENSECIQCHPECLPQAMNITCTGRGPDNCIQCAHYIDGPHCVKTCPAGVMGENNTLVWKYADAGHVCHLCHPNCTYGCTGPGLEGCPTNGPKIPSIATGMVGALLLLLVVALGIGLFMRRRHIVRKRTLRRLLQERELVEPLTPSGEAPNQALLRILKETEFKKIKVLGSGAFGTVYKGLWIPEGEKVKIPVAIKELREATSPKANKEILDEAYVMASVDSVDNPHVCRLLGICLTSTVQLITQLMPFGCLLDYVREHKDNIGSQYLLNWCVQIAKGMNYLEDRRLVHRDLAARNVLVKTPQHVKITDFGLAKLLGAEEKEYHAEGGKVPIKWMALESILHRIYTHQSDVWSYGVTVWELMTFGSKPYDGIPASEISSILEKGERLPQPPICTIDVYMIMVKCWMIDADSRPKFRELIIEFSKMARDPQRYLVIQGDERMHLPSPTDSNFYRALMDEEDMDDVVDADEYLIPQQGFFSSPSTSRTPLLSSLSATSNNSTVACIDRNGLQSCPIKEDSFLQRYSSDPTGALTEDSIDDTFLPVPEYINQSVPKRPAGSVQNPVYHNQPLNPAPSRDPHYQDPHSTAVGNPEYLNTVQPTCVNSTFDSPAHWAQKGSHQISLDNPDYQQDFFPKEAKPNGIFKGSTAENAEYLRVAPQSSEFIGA

A word on the IC50: it is the point on the concentration scale where inhibition reaches its midpoint. A lower IC50 goes with inhibition by little substance. `[2H]C1([2H])N(c2nc(Nc3cc(NC(=O)C=C)c(N(C)CCN(C)C)cc3OC)ncc2C(=O)OC(C)C)c2ccc(C)nc2C1(C)C` [Example 47, isopropyl 2-((5-acrylamido-4-((2-(dimethylami-no)ethyl)(methyl)amino)-2-methoxy-phenyl)amino)-4-(3,3,5-trimethyl-2,3-dihydro-1H-pyrrolo[3,2-b]pyridin-1-yl-2,2-d2)pyrimidine-5-carboxylate]: half-maximal inhibition in test [1] (IC50) required 56.1 nM. The GI50 was 22.4 nM in test [2] and 13.4 nM in test [3].

Turning to `[2H]C1([2H])N(c2nc(Nc3cc(NC(=O)C=C)c(N4CCC[C@@H]4CN(C)C)cc3OC)ncc2C(=O)OC(C)C)c2ccc(C)nc2C1(C)C` [Example 48, isopropyl (R)-2-((5-acrylamido-4-(2-((dimethyl-amino)methyl)pyrrolidin-1-yl)-2-meth-oxyphenyl)amino)-4-(3,3,5-trimethyl-2,3-dihydro-1H-pyrrolo[3,2-b]pyridin-1-yl-2,2-d2)pyrimidine-5-carboxylate], in test [1], half-maximal inhibition (IC50) required 4.4 nM. Besides, the GI50 in test [2] is 37 nM; in test [3] it was 11.1 nM.

As to `[2H]C1([2H])N(c2nc(Nc3cc(NC(=O)C=C)c(N4CC[C@@H](N(C)C)C4)cc3OC)ncc2C(=O)OC(C)C)c2ccc(C)nc2C1(C)C` [Example 49, isopropyl (R)-2-((5-acrylamido-4-(3-(dimethyl-amino)pyrrolidin-1-yl)-2-methoxy-phenyl)amino)-4-(3,3,5-trimethyl-2,3-dihydro-1H-pyrrolo[3,2-b]pyridin-1-yl-2,2-d2)pyrimidine-5-carboxylate], the midpoint of inhibition in test [1], the IC50, lay at 1420 nM. The results for the GI50 in test [2] and in test [3] were 24.4 nM and 31.3 nM, respectively.

For the compound `[2H]C1([2H])N(c2nc(Nc3cc(NC(=O)C=C)c(N4CC(N(C)C)C4)cc3OC)ncc2C(=O)OC(C)C)c2ccc(C)nc2C1(C)C` [Example 50, isopropyl 2-((5-acrylamido-4-(3-(dimethylami-no)azetidin-1-yl)-2-methoxy-phenyl)amino)-4-(3,3,5-trimethyl-2,3-dihydro-1H-pyrrolo[3,2-b]pyridin-1-yl-2,2-d2)pyrimidine-5-carboxylate], in test [1], the IC50 came to 813 nM. In addition, the results for the GI50 in test [2] and in test [3] were 27.9 nM and 36.7 nM, respectively.

`[2H]C1([2H])N(c2nc(Nc3cc(NC(=O)C=C)c(N(C)C[C@@H]4CCCN4C)cc3OC)ncc2C(=O)OC(C)C)c2ccc(C)nc2C1(C)C` [Example 52, isopropyl (S)-2-((5-acrylamido-2-methoxy-4-(methyl((1-methylpyrrolidin-2-yl)methyl)amino)phenyl)amino)-4-(3,3,5-trimethyl-2,3-dihydro-1H-pyrrolo[3,2-b]pyridin-1-yl-2,2-d2)pyrimidine-5-carboxylate] came in with an IC50 in test [1] of 185 nM. In addition, the GI50 in test [2] came to 61.9 nM; in test [3] it was 24.1 nM.

Consider `C=CC(=O)Nc1cc(Nc2ncc(C(=O)OC(C)C)c(N3CC(C)(C)c4nc(C)ccc43)n2)c(O)cc1N(C)CCN(C)C` [Example 54, isopropyl 2-((5-acrylamido-4-((2-(dimethylami-no)ethyl)(methyl)amino)-2-hydroxy-phenyl)amino)-4-(3,3,5-trimethyl-2,3-dihydro-1H-pyrrolo[3,2-b]pyridin-1-yl)pyrimidine-5-carboxylate], for which 1140 nM corresponded to half-maximal inhibition in test [1] (IC50). The GI50 in test [2] stood at 81.9 nM; in test [3] it was 77 nM.

Compound `C=CC(=O)Nc1cc(Nc2ncc(C(=O)OC(C)C)c(N3CC(C)(C)c4nc(C)ccc43)n2)c(OC)cc1NCCN(C)C` [Example 55, isopropyl 2-((5-acrylamido-4-((2-(dimethylami-no)ethyl)amino)-2-methoxy-phenyl)amino)-4-(3,3,5-trimethyl-2,3-dihydro-1H-pyrrolo[3,2-b]pyridin-1-yl)pyrimidine-5-carboxylate] came in with an IC50 in test [1] of 432 nM. The GI50 in test [2] is 52 nM; in test [3], 22.8 nM.

In test [1], `C=CC(=O)Nc1cc(Nc2ncc(C(=O)OC(C)C)c(N3CC(C)(C)c4nc(C)ccc43)n2)c(OC)cc1N(C)CCN(CC)CC` [Example 56, isopropyl 2-((5-acrylamido-4-((2-(diethylami-no)ethyl)(methyl)amino)-2-methoxy-phenyl)amino)-4-(3,3,5-trimethyl-2,3-dihydro-1H-pyrrolo[3,2-b]pyridin-1-yl)pyrimidine-5-carboxylate] yielded a concentration for half-maximal inhibition (IC50) of 301 nM. Also, the GI50 in test [2] stood at 91.1 nM; in test [3], 33.5 nM.

With `C=CC(=O)Nc1cc(Nc2ncc(C(=O)OC(C)C)c(N3CC(C)(C)c4nc(Cl)ccc43)n2)c(OC)cc1N(C)CCN(C)C` [Example 57, isopropyl 2-((5-acrylamido-4-((2-(dimethylami-no)ethyl)(methyl)amino)-2-methoxy-phenyl)amino)-4-(5-chloro-3,3-dimethyl-2,3-dihydro-1H-pyrrolo[3,2-b]pyridin-1-yl)pyrimidine-5-carboxylate], the midpoint of inhibition in test [1], the IC50, lay at 988 nM. The GI50 in test [2] was determined as 62.4 nM; in test [3], 23.3 nM.

As to `C=CC(=O)Nc1cc(Nc2ncc(C(=O)OC(C)C)c(N3CC(C)(C)c4nc(C)ccc43)n2)c(OC)cc1N1C[C@H]2CN(C)C[C@H]2C1` [Example 58, isopropyl 2-((5-acrylamido-2-methoxy-4-((3aR,6aS)-5-methylhexahydro-pyrrolo[3,4-c]pyrrol-2(1H)-yl)phenyl)amino)-4-(3,3,5-trimethyl-2,3-dihydro-1H-pyrrolo[3,2-b]pyridin-1-yl)pyrimidine-5-carboxylate], the IC50 in test [1] was determined as 1280 nM. Moreover, the GI50 in test [2] was determined as 38.1 nM; in test [3], 28.7 nM.

In the case of `C=CC(=O)Nc1cc(Nc2ncc(C(=O)OC(C)C)c(N3CC(C)(C)c4nc(C)ccc43)n2)c(OC)nc1N1C[C@@H](F)C[C@@H]1CN(C)C` [Example 59, isopropyl 2-((5-acrylamido-6-((2R,4S)-2-((dimethylamino)methyl)-4-fluoro-pyrrolidin-1-yl)-2-methoxypyridin-3-yl)amino)-4-(3,3,5-trimethyl-2,3-dihydro-1H-pyrrolo[3,2-b]pyridin-1-yl)pyrimidine-5-carboxylate], the IC50 in test [1] came out at 150 nM. Further, the GI50 in test [2] and in test [3] was 18.4 nM in each case.

For `C=CC(=O)Nc1cc(Nc2ncc(C(=O)OC(C)C)c(N3CC(C)(C)c4nc(C)ccc43)n2)c(OC)cc1N1CCC[C@H](N(C)C)C1` [Example 60, isopropyl (S)-2-((5-acrylamido-4-(3-(dimethyl-amino)piperidin-1-yl)-2-methoxy-phenyl)amino)-4-(3,3,5-trimethyl-2,3-dihydro-1H-pyrrolo[3,2-b]pyridin-1-yl)pyrimidine-5-carboxylate], in test [1], the IC50 stood at 761 nM. Also, the GI50 came out at 37.9 nM in test [2] and 31.9 nM in test [3].

In the case of `C=CC(=O)Nc1cc(Nc2ncc(C(=O)OC(C)C)c(N3CC(C)(C)c4nc(C)ccc43)n2)c(OC)cc1N(C)C[C@H]1CCCN1C` [Example 62, isopropyl (R)-2-((5-acrylamido-2-methoxy-4-(methyl((1-methylpyrrolidin-2-yl)methyl)amino)phenyl)amino)-4-(3,3,5-trimethyl-2,3-dihydro-1H-pyrrolo[3,2-b]pyridin-1-yl)pyrimidine-5-carboxylate], the IC50 in test [1] is 120 nM. Besides, the GI50 in test [2] came out at 16 nM; in test [3], 12.3 nM.

The values are drawn from patent US12692264B2, “Pyrimidine or pyridine derivative, preparation method therefor, and application thereof in pharmacy” (ABBISKO THERAPEUTICS CO., LTD., priority 2021, dated 2026).
